Data: patent US10174029B2, “Pyrimidine-2,4-diamine derivatives for treatment of cancer” (THOMAS HELLEDAYS STIFTELSE FOR MEDICINSK FORSKNING, priority 2012, dated 2019)
pIC50: −log10 of the molar value.

biological target: MTH1 (Homo sapiens, UniProt P36639); test: MTH1 enzymatic assay and IC50 value determination (malachite green); assay type: biochemical; conditions: MTH1 4.8 nM, dGTP 100 μM, 15 minutes at 22° C.; group: between 2 μM and 10 μM
Procedure, shortened: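 Malachite green detection of Pi after coupling dGTP hydrolysis to excess E. coli pyrophosphatase; 4.8 nM MTH1, 100 μM dGTP in Tris-acetate buffer with Mg2+ and DTT, 1% DMSO, 15 min at 22 °C. 12-point 1:3 compound series; absorbance at 630 nm; IC50 by four-parameter nonlinear regression.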

| pIC50 | Compound |
| --- | --- |
| 5.00 to 5.70 | Cc1nnc(CNc2cc(-c3cccc(C)c3C)nc(N)n2)[nH]1 [Example 399, 6-(2,3-Dimethylphenyl)-4-N-[(5-methyl-4H-1,2,4-triazol-3-yl)methyl]pyrimidine-2,4-diamine] |

same assay, conditions: MTH1 4.8 nM, dGTP 100 μM, 15 minutes at 22° C.; group: less than 200 nM

| pIC50 | Compound |
| --- | --- |
| > 6.70 | C=Cc1ccc(-c2cc(NC)nc(N)n2)cc1 [Example 111, 6-(4-ethenylphenyl)-4-N-methylpyrimidine-2,4-diamine] |
| > 6.70 | Nc1nc(NC2CCCCC2)cc(-c2cccc(Cl)c2Cl)n1 [Example 175, 4-N-cyclohexyl-6-(2,3-dichlorophenyl)pyrimidine-2,4-diamine] |
| > 6.70 | Cc1c(Cl)cccc1-c1cc(NC2CC3CCC2C3)nc(N)n1 (centres unmarked) [Example 244, 4-N-{bicyclo[2.2.1]heptan-2-yl}-6-(3-chloro-2-methylphenyl)pyrimidine-2,4-diamine] |
| > 6.70 | COc1ccc(-c2cc(NC3CCC3)nc(N)n2)cc1 [Example 59, 4-N-cyclobutyl-6-(4-methoxyphenyl)pyrimidine-2,4-diamine] |
| > 6.70 | Cc1cccc(-c2cc(NCc3cnc(Cl)cn3)nc(N)n2)c1C [Example 254, 4-N-[(5-chloropyrazin-2-yl)methyl]-6-(2,3-dimethylphenyl)pyrimidine-2,4-diamine] |
| > 6.70 | CNc1cc(-c2ccc(C=O)cc2)nc(N)n1 [Example 108, 4-[2-amino-6-(methylamino)pyrimidin-4-yl]benzaldehyde] |
| > 6.70 | Nc1nc(NC2CCCC2)cc(-c2cccc(Cl)c2Cl)n1 [Example 65, 4-N-cyclopentyl-6-(2,3-dichlorophenyl)pyrimidine-2,4-diamine] |
| > 6.70 | Cc1cccc(-c2cc(NCCc3ccc(Cl)cc3)nc(N)n2)c1Cl [Example 228, 6-(2-chloro-3-methylphenyl)-4-N-[2-(4-chlorophenyl)ethyl]pyrimidine-2,4-diamine] |
| > 6.70 | Cc1cccc(-c2cc(NCC3CC3)nc(N)n2)c1C [Example 164, 4-N-(cyclopropylmethyl)-6-(2,3-dimethylphenyl)pyrimidine-2,4-diamine] |
| > 6.70 | Cc1cccc(-c2cc(NCc3ccc4cn[nH]c4c3)nc(N)n2)c1C [Example 252, 6-(2,3-dimethylphenyl)-4-N-(1H-indazol-6-ylmethyl)pyrimidine-2,4-diamine] |
